Data published in publication PMC4786998 (Journal of Hematology & Oncology, 2016).
pIC50: −log10 of the molar value. Read-outs that look alike come from different tables or passages of the source.

Assays:
[1] = tested on: crizotinib-resistant ALK-positive tumors; assay: Antitumor response by RECIST v1.1 in the dose-expansion cohort; type: in vivo, human
From the text: Solid tumor assessment was based on Response Evaluation Criteria in Solid Tumors (RECIST) v1.1. For target lesions, complete response (CR) was defined as disappearance of all target lesions and pathologic lymph nodes with a reduction in short axis to <10 mm. Partial response (PR) was defined as a ≥30 % decrease in the sum of diameters of the target lesions, taking as reference the baseline sum of diameters. Progressive disease (PD) was defined as a ≥20 % increase in the sum of diameters from the smallest sum on the study and the sum of diameters to be ≥5 mm from the smallest sum on study. Stable disease (SD) was defined as neither PR nor PD.
For patients in the dose-expansion cohort with evaluable tumor diameter, the best tumor reduction was calculated as the decrease from baseline in the sum of the target lesions.
For continuous variables, descriptive statistics included the number of patients, mean (standard deviation), median, and range. For antitumor assessments, the number and percentage (95 % CI) of patients with CR, PR, SD, and PD were summarized. The overall best tumor response was also summarized. For the objective response rates, the exact confidence interval of response was calculated only for the dose-expansion cohort using the Clopper–Pearson method. For continuous PK parameters, the coefficient of variation was calculated. For Cmax and AUC, geometric mean was calculated. All data processing and analyses were performed using SAS® Version 9.1.3 or higher.

[2] = biological target: wild-type ALK kinase domain; details: cited from earlier work
[3] = tested on: panel of 86 tyrosine kinases; details: 1 μmol/L; cited from earlier work
[4] = Electrocardiogram QTcF in phase I patients; details: 325-mg dose
Procedure: The safety and tolerability of […] were assessed by adverse events (AEs) (graded based on NCI-CTCAE v4.03), laboratory tests, vital signs, electrocardiograms, and clinical observations.

[5] = tested on: wild-type ALK and EML4-ALK L1196M xenograft tumors; details: mice, subcutaneous and intracranial xenografts, compared with crizotinib; cited from earlier work
[6] = Plasma pharmacokinetics in phase I patients; type: in vivo, human; details: for AUC: read-out: AUC24
Procedure: On day 1, the following PK parameters were assessed for […]: area under the plasma concentration-time curve (AUC24), AUClast, maximum concentration observed (Cmax), and time of maximum concentration observed (tmax). On day 28, [NT], Cmax, Ctrough, tmax, CL/F, Vz/F, and t1⁄2, calculated based on the ratio of accumulation for AUC (day 28 AUCtau/day 1 AUC24) (Rac [AUC]), were assessed. Cumulative effects on steady-state […] plasma levels were assessed by comparing Ctrough on day 28 divided by Ctrough on days 8, 15, and 22. For continuous variables, descriptive statistics included the number of patients, mean (standard deviation), median, and range. For antitumor assessments, the number and percentage (95 % CI) of patients with CR, PR, SD, and PD were summarized. The overall best tumor response was also summarized. For the objective response rates, the exact confidence interval of response was calculated only for the dose-expansion cohort using the Clopper-Pearson method. For continuous PK parameters, the coefficient of variation was calculated. For Cmax and AUC, geometric mean was calculated. All data processing and analyses were performed using SAS® Version 9.1.3 or higher. The safety analysis set was defined as patients who received at least one […] dose. The PK analysis set was defined as patients who received at least one dose of […] and provided the values of drug concentrations for at least one time point.

[7] = Phase I safety/tolerability (adverse events, DLT, MTD) in patients with advanced solid tumors
Procedure: The study was divided into two parts: dose escalation and dose expansion. Dose escalation used a traditional 3 + 3 dose-escalation design. […] The first patient in each dose-escalation cohort was evaluated for dose-limiting toxicities (DLTs) in cycle 1, day 4. If no DLTs were reported by the investigator, the remaining patients in the cohort were enrolled. […] The protocol allowed that and subsequent doses to be expanded to enroll an additional three patients who were known to have tumors tested positive for ALK abnormalities once safety was established in the first three subjects for that cohort.

L1196M ALK kinase domain = details: cited from earlier work
[8] = expansion cohort, 525 mg, n = 16
[9] = human, plasma, oral, 25 mg, cycle 1, day 1, 25 mg once daily, dose-escalation cohort, n = 4, mean (standard deviation)
[10] = human, plasma, oral, 25 mg, cycle 1, day 28, 25 mg once daily, dose-escalation cohort, n = 3, mean (standard deviation)
[11] = human, plasma, oral, 50 mg, cycle 1, day 1, 50 mg once daily, dose-escalation cohort, n = 3, mean (standard deviation)
[12] = human, plasma, oral, 50 mg, cycle 1, day 28, 50 mg once daily, dose-escalation cohort, n = 3, mean (standard deviation)
[13] = human, plasma, oral, 75 mg, cycle 1, day 1, 75 mg once daily, dose-escalation cohort, n = 3, mean (standard deviation)
[14] = human, plasma, oral, 75 mg, cycle 1, day 28, 75 mg once daily, dose-escalation cohort, n = 3, mean (standard deviation)
[15] = human, plasma, oral, 125 mg, cycle 1, day 1, 125 mg once daily, dose-escalation cohort, n = 4, mean (standard deviation)
[16] = human, plasma, oral, 125 mg, cycle 1, day 28, 125 mg once daily, dose-escalation cohort, n = 1
[17] = human, plasma, oral, 200 mg once daily, cycle 1, day 28, 200 mg once daily, dose-escalation cohort, n = 3, mean (standard deviation)
[18] = human, plasma, oral, 200 mg, cycle 1, day 1, 200 mg once daily, dose-escalation cohort, n = 4, mean (standard deviation)
[19] = human, plasma, oral, 325 mg once daily, cycle 1, day 28, 325 mg once daily, dose-escalation cohort, n = 3, mean (standard deviation)
[20] = human, plasma, oral, 325 mg, cycle 1, day 1, 325 mg once daily, dose-escalation cohort, n = 3, mean (standard deviation)
[21] = human, plasma, oral, 800 mg, cycle 1, day 1, 800 mg once daily, dose-escalation cohort, n = 3, mean (standard deviation)
[22] = human, plasma, oral, 800 mg, cycle 1, day 28, 800 mg once daily, dose-escalation cohort, n = 1

Structure (SMILES): COc1cc(N2CCC(N3CCN(C)CC3)CC2)ccc1Nc1ncnc(Nc2ccccc2S(=O)(=O)C(C)C)n1 [ASP3026]
- best overall response: stable disease rate ([1]; 525 mg, 16 crizotinib-resistant ALK-positive patients): 44%
- best overall response: partial response rate ([1]; 525 mg, 16 crizotinib-resistant ALK-positive patients (15 NSCLC, 1 neuroblastoma)): 50%
- objective (overall) response rate (CR + PR) ([1]; 525 mg, 16 crizotinib-resistant ALK-positive patients, 95 % CI 25–75 %): 50%
- stable disease rate ([1]; 525 mg, restricted to ALK-positive NSCLC patients, 6/15): 40%
- partial response rate ([1]; 525 mg, restricted to ALK-positive NSCLC patients, 8/15): 53%
- median progression-free survival ([1]; ALK-positive patients, 95 % CI 4–9): 6 months
- duration of response, range ([1]; dose-expansion cohort, 525 mg): 27 to 338 days
- Best overall response: complete response [1, 8]: 0 n (%)
- Best overall response: partial response [1, 8]: 8 (50) n (%)
- Best overall response: progressive disease [1, 8]: 0 n (%)
- Best overall response: stable disease [1, 8]: 7 (44) n (%)
- Best overall response: unable to evaluate [1, 8]: 1 (6) n (%)
- Objective response (complete response + partial response) ([1]; expansion cohort, 525 mg, n = 16, 95 % CI 25–75 %): 8 (50) n (%)
- pIC50 [2]: 8.00
- number of tyrosine kinases inhibited by more than 50 % [3]: 11
- QTcF, mean (standard deviation) maximal increase [4]: 47.0 (10.7) ms
- antitumor activity in xenograft tumors [5]: potent antitumor activity
- slope estimate (95 % CI) of dose-normalized AUClast versus dose ([6]; human, in vivo): 0.090 (−0.097, 0.277)
- slope estimate (95 % CI) of dose-normalized Cmax versus dose ([6]; human, in vivo): 0.170 (−0.018, 0.358)
- t ½ ([6]; human, in vivo): 24.9 (12.7) h
- time to steady-state plasma concentrations ([6]; human, in vivo): ≤ 8 days
- half-life ([6]; human, in vivo, accumulation half-life, mean (standard deviation)): 25 h
- half-life ([6]; human, in vivo, half-life, range): 22 to 85 h
- half-life ([6]; human, in vivo, median half-life): 35 h
- Tmax ([6]; human, in vivo, po, tmax): ~3 h
- Tmax ([6]; human, in vivo, t max): 4 h
- half-life ([6]; human, in vivo, t ½): 27.3 h
- Cmax [6, 9]: 32 ng/mL
- AUC [6, 9]: 378 ng·h/mL
- Tmax ([6]; human, plasma, oral, 25 mg, cycle 1, day 1, 25 mg once daily, dose-escalation cohort, n = 4, median (range), read-out: t max): 3 h
- Cmax [6, 10]: 68.4 ng/mL
- half-life ([6]; human, plasma, oral, 25 mg, cycle 1, day 28, 25 mg once daily, dose-escalation cohort, n = 3, mean (standard deviation), calculated from accumulation ratio, read-out: t ½ (converted)): 36.6 h
- AUC [6, 10]: 1040 ng·h/mL
- Tmax ([6]; human, plasma, oral, 25 mg, cycle 1, day 28, 25 mg once daily, dose-escalation cohort, n = 3, median (range), read-out: t max): 3 h
- Cmax [6, 11]: 99.7 ng/mL
- AUC [6, 11]: 846 ng·h/mL
- Tmax ([6]; human, plasma, oral, 50 mg, cycle 1, day 1, 50 mg once daily, dose-escalation cohort, n = 3, median (range), read-out: t max): 3 h
- Cmax [6, 12]: 143 ng/mL
- half-life ([6]; human, plasma, oral, 50 mg, cycle 1, day 28, 50 mg once daily, dose-escalation cohort, n = 3, mean (standard deviation), calculated from accumulation ratio, read-out: t ½ (converted)): 35.2 h
- AUC [6, 12]: 2110 ng·h/mL
- Tmax ([6]; human, plasma, oral, 50 mg, cycle 1, day 28, 50 mg once daily, dose-escalation cohort, n = 3, median (range), read-out: t max): 3 h
- Cmax [6, 13]: 87.6 ng/mL
- AUC [6, 13]: 1160 ng·h/mL
- Tmax ([6]; human, plasma, oral, 75 mg, cycle 1, day 1, 75 mg once daily, dose-escalation cohort, n = 3, median (range), read-out: t max): 8.2 h
- Cmax [6, 14]: 352 ng/mL
- half-life ([6]; human, plasma, oral, 75 mg, cycle 1, day 28, 75 mg once daily, dose-escalation cohort, n = 3, mean (standard deviation), calculated from accumulation ratio, read-out: t ½ (converted)): 84.7 h
- AUC [6, 14]: 5630 ng·h/mL
- Tmax ([6]; human, plasma, oral, 75 mg, cycle 1, day 28, 75 mg once daily, dose-escalation cohort, n = 3, median (range), read-out: t max): 3 h
- Cmax [6, 15]: 262 ng/mL
- AUC [6, 15]: 3000 ng·h/mL
- Tmax ([6]; human, plasma, oral, 125 mg, cycle 1, day 1, 125 mg once daily, dose-escalation cohort, n = 4, median (range), read-out: t max): 5 h
- Cmax [6, 16]: 668 ng/mL
- half-life ([6]; human, plasma, oral, 125 mg, cycle 1, day 28, 125 mg once daily, dose-escalation cohort, n = 1, calculated from accumulation ratio, read-out: t ½ (converted)): 36.7 h
- AUC [6, 16]: 8970 ng·h/mL
- Tmax ([6]; human, plasma, oral, 125 mg, cycle 1, day 28, 125 mg once daily, dose-escalation cohort, n = 1, read-out: t max): 2.1 h
- Cmax [6, 17]: 682 ng/mL
- half-life ([6]; human, plasma, oral, 200 mg once daily, cycle 1, day 28, 200 mg once daily, dose-escalation cohort, n = 3, mean (standard deviation), calculated from accumulation ratio, read-out: t ½ (converted)): 21.9 h
- AUC [6, 17]: 7620 ng·h/mL
- Tmax ([6]; human, plasma, oral, 200 mg once daily, cycle 1, day 28, 200 mg once daily, dose-escalation cohort, n = 3, median (range), read-out: t max): 3 h
- Cmax [6, 18]: 490 ng/mL
- AUC [6, 18]: 4580 ng·h/mL
- Tmax ([6]; human, plasma, oral, 200 mg, cycle 1, day 1, 200 mg once daily, dose-escalation cohort, n = 4, median (range), read-out: t max): 2.5 h
- Cmax [6, 19]: 1160 ng/mL
- half-life ([6]; human, plasma, oral, 325 mg once daily, cycle 1, day 28, 325 mg once daily, dose-escalation cohort, n = 3, mean (standard deviation), calculated from accumulation ratio, read-out: t ½ (converted)): 26.3 h
- AUC [6, 19]: 18800 ng·h/mL
- Tmax ([6]; human, plasma, oral, 325 mg once daily, cycle 1, day 28, 325 mg once daily, dose-escalation cohort, n = 3, median (range), read-out: t max): 4 h
- Cmax [6, 20]: 586 ng/mL
- AUC [6, 20]: 7950 ng·h/mL
- Tmax ([6]; human, plasma, oral, 325 mg, cycle 1, day 1, 325 mg once daily, dose-escalation cohort, n = 3, median (range), read-out: t max): 3 h
- Cmax [6, 21]: 1630 ng/mL
- AUC [6, 21]: 21800 ng·h/mL
- Tmax ([6]; human, plasma, oral, 800 mg, cycle 1, day 1, 800 mg once daily, dose-escalation cohort, n = 3, median (range), read-out: t max): 3 h
- Cmax [6, 22]: 4850 ng/mL
- half-life ([6]; human, plasma, oral, 800 mg, cycle 1, day 28, 800 mg once daily, dose-escalation cohort, n = 1, calculated from accumulation ratio, read-out: t ½ (converted)): 37.9 h
- AUC [6, 22]: 78100 ng·h/mL
- Tmax ([6]; human, plasma, oral, 800 mg, cycle 1, day 28, 800 mg once daily, dose-escalation cohort, n = 1, read-out: t max): 4 h
- linearity and dose proportionality of exposure (Cmax and AUClast) ([6]; multiple dosing (day 28), 25- to 800-mg dose range): both linear and dose-proportional exposure
- deaths on study ([7]; all due to PD, not related to the study drug): three
- changes in clinical laboratory parameters or vital signs over time ([7]; human, in vivo): no meaningful changes
- treatment-related adverse event: fatigue ([7]; human, in vivo): 35%
- treatment-related adverse event: nausea ([7]; human, in vivo): 38%
- treatment-related adverse event: vomiting ([7]; human, in vivo): 35%
- dose-limiting toxicities observed ([7]; human, in vivo, 28 days): Grade 3 rash and elevated transaminase concentrations
- pIC50 (L1196M ALK kinase domain): 7.49
